Experimental data reported in ChEMBL document CHEMBL1201862, “PubChem BioAssay data set” (2004).
The source made the active and inactive calls.

Legend:
[1] = target: T1, Neuropeptides B/W receptor type 1 (Homo sapiens, UniProt P48145); test: human NPBW1 receptor blockade, IC50 – cell-based, fluorescence, dose response, set 5, late-stage follow-up (AID 588566); format: functional
T1 sequence (P48145 whole entry): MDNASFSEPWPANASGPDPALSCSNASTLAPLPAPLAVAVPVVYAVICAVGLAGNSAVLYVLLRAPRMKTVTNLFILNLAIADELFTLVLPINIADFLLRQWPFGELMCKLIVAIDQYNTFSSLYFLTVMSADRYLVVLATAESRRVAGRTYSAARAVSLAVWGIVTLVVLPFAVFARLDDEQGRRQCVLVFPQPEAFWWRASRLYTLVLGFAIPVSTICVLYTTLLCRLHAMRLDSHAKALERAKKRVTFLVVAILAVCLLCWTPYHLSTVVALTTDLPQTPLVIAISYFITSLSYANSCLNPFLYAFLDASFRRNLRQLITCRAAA

[2] = target: Melanin-concentrating hormone receptor 1 (Homo sapiens, UniProt Q99705); test: Late-stage fluorescence-based counterscreen for antagonists of the G-protein coupled receptor 7 (GPR7): cell-based dose response assay to identify antagonists of the melanin-concentrating hormone receptor 1 (MCHR1) Set 5.; format: functional
[3] = target: T2, ATP-dependent translocase ABCB1 (Homo sapiens, UniProt P08183); test: inhibition of BCRP-mediated JC-1 efflux – Ig-MXP3 cells, flow cytometry, set 2, dose response (AID 504566); format: functional; settings: read-out: EC50_MICROM_;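 further: flow cytometry median green fluorescence of retained JC-1 dye; potency of efflux pump inhibition measured as rising substrate retention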
[4] = target: T2, ATP-dependent translocase ABCB1; test: P-gp JC-1 efflux blockade concentration-response – Jurkat-DNR cells, flow cytometry, set 2, dose response (AID 504569); format: functional; settings: read-out: EC50_MICROM_;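 further: potency of pump inhibitors that raise cellular JC-1 green fluorescence up to the nicardipine level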
Insulin-degrading enzyme [5] = target: T3, Insulin-degrading enzyme (Homo sapiens, UniProt P14735); test: cellular IDE activation of Abeta substrate cleavage – fluorescence polarization, HEK cells, dose response (AID 588439); format: functional, cell-based
T3 sequence (P14735 whole entry): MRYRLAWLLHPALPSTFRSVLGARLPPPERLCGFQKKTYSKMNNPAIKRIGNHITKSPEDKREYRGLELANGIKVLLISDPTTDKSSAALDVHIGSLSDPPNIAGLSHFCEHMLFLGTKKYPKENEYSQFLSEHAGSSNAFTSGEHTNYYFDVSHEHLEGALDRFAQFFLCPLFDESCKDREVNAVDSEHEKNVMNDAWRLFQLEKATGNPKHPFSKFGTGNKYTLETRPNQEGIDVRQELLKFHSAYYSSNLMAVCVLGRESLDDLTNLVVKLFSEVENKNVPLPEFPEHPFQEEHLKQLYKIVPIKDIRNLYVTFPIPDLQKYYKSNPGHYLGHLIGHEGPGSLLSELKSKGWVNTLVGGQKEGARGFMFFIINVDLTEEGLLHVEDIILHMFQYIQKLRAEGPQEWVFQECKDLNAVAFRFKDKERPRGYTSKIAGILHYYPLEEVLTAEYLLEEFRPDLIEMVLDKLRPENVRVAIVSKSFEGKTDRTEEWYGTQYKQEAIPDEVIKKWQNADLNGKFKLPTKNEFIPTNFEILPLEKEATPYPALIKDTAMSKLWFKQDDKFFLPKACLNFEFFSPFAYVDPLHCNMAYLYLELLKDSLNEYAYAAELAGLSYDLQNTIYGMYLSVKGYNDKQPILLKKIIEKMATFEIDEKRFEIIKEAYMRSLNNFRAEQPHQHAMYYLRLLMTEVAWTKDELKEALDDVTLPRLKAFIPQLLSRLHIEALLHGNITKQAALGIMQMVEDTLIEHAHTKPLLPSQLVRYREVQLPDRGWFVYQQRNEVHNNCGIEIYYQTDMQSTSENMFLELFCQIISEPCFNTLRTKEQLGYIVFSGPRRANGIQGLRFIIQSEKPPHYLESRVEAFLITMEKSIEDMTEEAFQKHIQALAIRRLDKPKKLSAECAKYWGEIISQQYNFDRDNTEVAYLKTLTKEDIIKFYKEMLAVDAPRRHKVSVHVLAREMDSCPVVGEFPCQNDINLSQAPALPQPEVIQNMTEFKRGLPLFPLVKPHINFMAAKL

Insulin-degrading enzyme [6] = target: T3, Insulin-degrading enzyme; test: recombinant IDE activation, cell-free – biochemical, fluorescence polarization, counter-screen for IDE activator project, dose response (AID 588681)
[7] = target: T4, Ubiquitin-conjugating enzyme E2 N (Homo sapiens, UniProt P61088); format: functional
T4 sequence (P61088 whole entry): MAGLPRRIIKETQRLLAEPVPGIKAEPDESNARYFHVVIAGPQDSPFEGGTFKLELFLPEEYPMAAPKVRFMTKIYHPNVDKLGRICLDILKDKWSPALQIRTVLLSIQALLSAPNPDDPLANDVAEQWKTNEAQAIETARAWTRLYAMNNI

[8] = target: T5, Apoptotic protease-activating factor 1 (Homo sapiens, UniProt O14727); format: functional
T5 sequence (O14727 whole entry): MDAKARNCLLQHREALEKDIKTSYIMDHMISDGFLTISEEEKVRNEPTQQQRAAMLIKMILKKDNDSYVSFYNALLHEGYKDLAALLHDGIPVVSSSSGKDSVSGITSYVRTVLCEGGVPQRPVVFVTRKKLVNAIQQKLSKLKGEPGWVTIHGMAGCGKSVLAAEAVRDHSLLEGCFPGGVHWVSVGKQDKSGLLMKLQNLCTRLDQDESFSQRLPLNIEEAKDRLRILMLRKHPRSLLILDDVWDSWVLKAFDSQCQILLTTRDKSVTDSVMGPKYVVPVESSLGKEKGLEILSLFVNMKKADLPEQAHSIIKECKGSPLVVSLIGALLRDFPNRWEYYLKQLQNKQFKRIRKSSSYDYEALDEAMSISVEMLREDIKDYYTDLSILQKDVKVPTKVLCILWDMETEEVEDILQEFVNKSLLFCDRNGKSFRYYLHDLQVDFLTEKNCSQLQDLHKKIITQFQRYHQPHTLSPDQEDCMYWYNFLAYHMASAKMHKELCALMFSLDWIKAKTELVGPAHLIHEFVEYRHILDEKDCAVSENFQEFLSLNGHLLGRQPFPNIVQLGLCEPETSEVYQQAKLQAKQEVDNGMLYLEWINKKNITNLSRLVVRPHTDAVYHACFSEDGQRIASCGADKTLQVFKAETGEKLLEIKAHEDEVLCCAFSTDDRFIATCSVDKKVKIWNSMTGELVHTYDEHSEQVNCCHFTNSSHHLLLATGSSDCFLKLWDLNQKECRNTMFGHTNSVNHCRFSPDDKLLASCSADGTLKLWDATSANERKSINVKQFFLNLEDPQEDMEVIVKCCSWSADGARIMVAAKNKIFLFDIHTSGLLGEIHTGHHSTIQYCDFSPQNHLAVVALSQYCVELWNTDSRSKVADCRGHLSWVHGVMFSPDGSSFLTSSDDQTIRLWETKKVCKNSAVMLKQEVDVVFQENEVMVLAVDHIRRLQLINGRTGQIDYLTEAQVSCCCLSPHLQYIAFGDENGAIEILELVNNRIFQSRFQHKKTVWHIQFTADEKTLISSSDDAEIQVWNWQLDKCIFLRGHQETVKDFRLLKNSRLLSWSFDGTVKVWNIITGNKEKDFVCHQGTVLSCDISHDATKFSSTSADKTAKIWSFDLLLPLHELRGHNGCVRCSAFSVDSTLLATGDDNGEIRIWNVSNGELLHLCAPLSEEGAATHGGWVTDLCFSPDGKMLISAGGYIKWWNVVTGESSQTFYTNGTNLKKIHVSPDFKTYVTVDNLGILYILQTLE

[9] = fluconazole-exposed Candida albicans growth modulators – fluorescence, retest, confirmation (AID 2467); format: functional, cell-based
HEK293 [10] = test: optical interference in Abeta FP readout, dose response, artefact control for IDE activator project, biochemical, fluorescence polarization (AID 588442); format: functional, cell-based; settings: Homo sapiens
[11] = target: T4, Ubiquitin-conjugating enzyme E2 N; format: functional; remark: listed apart in the source
Bcl-2-related protein A1 = target: T6, Bcl-2-related protein A1 (Mus musculus, UniProt Q07440); format: functional;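 further: confirmatory dose–response counterscreen on Bfl-1, used to check hits from a UBC13 polyubiquitin inhibitor campaign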
T6 sequence (Q07440 whole entry): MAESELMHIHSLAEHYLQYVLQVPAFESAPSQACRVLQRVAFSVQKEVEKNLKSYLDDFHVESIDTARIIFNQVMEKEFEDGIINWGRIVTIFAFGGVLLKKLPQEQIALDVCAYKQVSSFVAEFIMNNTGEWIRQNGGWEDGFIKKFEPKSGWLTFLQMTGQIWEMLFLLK

[12] = microbe, parasite or virus in culture; format: functional; settings: Mycobacterium tuberculosis
HEK293 [13] = test: membrane integrity loss in HEK cells – cell-based, fluorescence, cytotoxicity control for IDE activator project, dose response (AID 588440); format: functional; settings: Homo sapiens;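 further: cytotoxicity by LDH release measuring loss of membrane integrity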
[14] = NIH-3T3 fibroblast cytotoxicity, dose response, cytotoxicity control, cell-based, fluorescence, Alamar Blue, secondary assay (AID 2327); format: functional;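 further: NIH-3T3 mouse fibroblasts cultured with fluconazole at 8 µg/mL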
[15] = target: T7, High affinity choline transporter 1 (Homo sapiens, UniProt Q9GZV3); test: human choline transporter blockers, potency – cell-based, 10-point CRC, membrane potential dye, dose response (AID 588401); format: functional;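 further: membrane potential dye fluorescence of choline-evoked depolarization via CHT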
T7 sequence (Q9GZV3 whole entry): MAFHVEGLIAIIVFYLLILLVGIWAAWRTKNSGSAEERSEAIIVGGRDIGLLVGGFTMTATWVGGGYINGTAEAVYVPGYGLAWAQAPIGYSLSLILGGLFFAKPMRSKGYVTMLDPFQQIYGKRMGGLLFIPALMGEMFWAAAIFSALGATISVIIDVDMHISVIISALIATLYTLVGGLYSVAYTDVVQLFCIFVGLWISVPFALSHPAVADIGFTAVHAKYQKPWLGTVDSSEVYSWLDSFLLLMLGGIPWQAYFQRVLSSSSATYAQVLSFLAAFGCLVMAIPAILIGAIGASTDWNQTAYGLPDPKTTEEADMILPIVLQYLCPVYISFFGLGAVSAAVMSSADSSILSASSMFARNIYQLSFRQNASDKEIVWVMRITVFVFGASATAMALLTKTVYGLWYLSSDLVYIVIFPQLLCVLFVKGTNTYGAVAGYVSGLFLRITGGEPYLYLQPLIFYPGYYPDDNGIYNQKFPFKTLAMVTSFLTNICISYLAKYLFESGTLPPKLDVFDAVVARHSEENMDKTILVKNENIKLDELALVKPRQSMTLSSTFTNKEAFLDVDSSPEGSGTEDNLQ

[16] = target: T7, High affinity choline transporter 1; test: human choline transporter radiolabel uptake blockers – cell-based, 3H-choline uptake, CHT LV-AA trafficking mutant, CRC, dose response (AID 602208); format: functional
[17] = target: T7, High affinity choline transporter 1; test: human choline transporter blockers, potency – cell-based, 5-point CRC, membrane potential dye, dose response (AID 504840); format: functional
Interleukin-8 [18] = target: T8, Interleukin-8 (Homo sapiens, UniProt P10145); test: Dose Response confirmation of uHTS small molecule hits for cystic fibrosis induced NFkb Inhibitors in a TNFa-induced IL8 counterscreen.; format: functional; settings: read-out: IC50_Mean
T8 sequence (P10145 whole entry): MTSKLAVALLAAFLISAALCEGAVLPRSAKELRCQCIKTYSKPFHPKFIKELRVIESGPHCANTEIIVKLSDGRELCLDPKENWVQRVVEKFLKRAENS

Interleukin-8 [19] = target: T8, Interleukin-8; test: Dose Response confirmation of uHTS small molecule hits for cystic fibrosis induced NFkb Inhibitors in a PAF-induced IL8 counterscreen.; format: functional; settings: read-out: IC50_Mean
[20] = target: Mitochondrial peptide methionine sulfoxide reductase (Bos taurus, UniProt P54149); format: functional;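 further: absorbance read-out, biochemical high-throughput dose-response screen for MsrA inhibitors, confirmatory; recombinant bovine MsrA coupled to E. coli TrxB with NADPH and selenocystamine; potency is for inhibitors of MsrA activity on DMSO substrate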
[21] = target: T9, Calpain-2 catalytic subunit (Sus scrofa, UniProt P43367); test: m-calpain protease blockers, concentration series – biochemical, fluorogenic peptide substrate, dose response (AID 1420); format: functional
T9 sequence (P43367 whole entry): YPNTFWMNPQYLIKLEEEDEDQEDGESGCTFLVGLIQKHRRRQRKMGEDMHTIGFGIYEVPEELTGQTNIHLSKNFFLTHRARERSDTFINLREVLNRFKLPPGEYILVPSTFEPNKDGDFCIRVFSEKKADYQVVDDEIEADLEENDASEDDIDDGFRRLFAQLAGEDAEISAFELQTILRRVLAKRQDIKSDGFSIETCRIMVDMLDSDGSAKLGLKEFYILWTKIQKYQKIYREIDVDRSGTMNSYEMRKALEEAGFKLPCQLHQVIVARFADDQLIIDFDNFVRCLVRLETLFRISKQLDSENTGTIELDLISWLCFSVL

T2 sequence (P08183 whole entry): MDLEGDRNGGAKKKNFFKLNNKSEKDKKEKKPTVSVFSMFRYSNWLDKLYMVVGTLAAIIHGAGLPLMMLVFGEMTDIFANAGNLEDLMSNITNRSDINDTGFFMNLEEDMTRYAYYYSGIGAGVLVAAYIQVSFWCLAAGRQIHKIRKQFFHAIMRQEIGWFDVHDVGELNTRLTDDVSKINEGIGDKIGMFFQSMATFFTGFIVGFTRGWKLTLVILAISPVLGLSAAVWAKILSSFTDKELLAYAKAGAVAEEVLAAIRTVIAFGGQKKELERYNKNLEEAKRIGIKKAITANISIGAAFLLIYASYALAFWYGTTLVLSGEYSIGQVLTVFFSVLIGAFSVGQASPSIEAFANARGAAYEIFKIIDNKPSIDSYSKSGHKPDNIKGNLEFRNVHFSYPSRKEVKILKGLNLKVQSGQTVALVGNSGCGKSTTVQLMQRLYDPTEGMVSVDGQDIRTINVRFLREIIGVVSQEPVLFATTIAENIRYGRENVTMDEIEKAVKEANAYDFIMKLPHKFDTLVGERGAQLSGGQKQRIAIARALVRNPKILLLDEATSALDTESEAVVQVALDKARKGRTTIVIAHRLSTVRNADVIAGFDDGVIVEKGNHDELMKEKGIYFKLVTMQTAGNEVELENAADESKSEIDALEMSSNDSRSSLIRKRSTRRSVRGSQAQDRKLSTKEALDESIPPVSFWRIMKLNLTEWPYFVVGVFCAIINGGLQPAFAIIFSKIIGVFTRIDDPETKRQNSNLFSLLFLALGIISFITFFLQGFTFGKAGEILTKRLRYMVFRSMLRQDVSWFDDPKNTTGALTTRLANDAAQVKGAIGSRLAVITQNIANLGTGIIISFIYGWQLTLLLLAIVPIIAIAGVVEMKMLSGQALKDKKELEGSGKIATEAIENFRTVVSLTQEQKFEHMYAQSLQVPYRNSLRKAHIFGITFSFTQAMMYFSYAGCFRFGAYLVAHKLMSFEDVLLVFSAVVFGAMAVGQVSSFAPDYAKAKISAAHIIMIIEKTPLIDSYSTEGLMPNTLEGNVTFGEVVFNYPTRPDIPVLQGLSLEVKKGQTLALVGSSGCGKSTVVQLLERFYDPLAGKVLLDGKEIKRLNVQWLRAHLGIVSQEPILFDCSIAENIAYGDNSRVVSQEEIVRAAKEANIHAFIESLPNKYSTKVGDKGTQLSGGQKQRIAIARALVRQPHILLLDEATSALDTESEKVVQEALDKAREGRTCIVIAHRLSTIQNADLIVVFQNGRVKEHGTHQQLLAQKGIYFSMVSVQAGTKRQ
Mitochondrial peptide methionine sulfoxide reductase, sequence (P54149 whole entry): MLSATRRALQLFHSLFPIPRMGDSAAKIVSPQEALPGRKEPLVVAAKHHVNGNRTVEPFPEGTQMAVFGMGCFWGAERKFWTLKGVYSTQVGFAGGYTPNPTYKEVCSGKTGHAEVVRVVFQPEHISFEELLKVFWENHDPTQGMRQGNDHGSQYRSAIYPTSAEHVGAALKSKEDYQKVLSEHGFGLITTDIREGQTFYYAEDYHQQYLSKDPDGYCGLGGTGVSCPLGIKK
Melanin-concentrating hormone receptor 1, sequence (Q99705 whole entry): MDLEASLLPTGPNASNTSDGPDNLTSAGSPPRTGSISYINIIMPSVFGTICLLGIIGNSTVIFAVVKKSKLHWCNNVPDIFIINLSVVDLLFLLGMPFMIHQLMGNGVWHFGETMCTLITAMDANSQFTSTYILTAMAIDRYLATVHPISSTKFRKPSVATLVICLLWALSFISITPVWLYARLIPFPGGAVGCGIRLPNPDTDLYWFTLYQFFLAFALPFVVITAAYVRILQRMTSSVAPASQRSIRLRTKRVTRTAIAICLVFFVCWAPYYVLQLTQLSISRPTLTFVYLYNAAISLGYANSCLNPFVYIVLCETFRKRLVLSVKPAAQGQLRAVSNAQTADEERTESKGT

O=C(C1CCCCN1C1c2ccccc2CCc2ccccc21)N1CCN(c2ccc([N+](=O)[O-])cc2)CC1 (configuration not stated)
IC50 [1]: > 20 µM (inactive)
IC50 [2]: > 20 µM (inactive)

COc1cccc(-c2cc3nc(-c4ccccc4)cc(N4CCN(C(=O)c5ccco5)CC4)n3n2)c1
EC50 [3]: 1.17 µM (active)
EC50 [4]: 4.32 µM (active)

NC1=NC[C@H](CC2CCCCC2)N1CCc1cc(C(F)(F)F)cc(C(F)(F)F)c1
EC50 (Insulin-degrading enzyme [5]): 9.93 µM (active)
EC50 (Insulin-degrading enzyme [6]): > 54.7 µM (inactive)
IC50 [7]: 17.2 µM (active)
IC50 [8]: 74.7 µM (active)
EC50 [9]: 7.64 µM (active)
EC50 (HEK293 [10]): > 54.7 µM (inactive)
IC50 [11]: 14.6 µM (active)
IC50 (Bcl-2-related protein A1): > 20 µM (inactive)
CC50 [12]: 26 µM (active)
IC50 (HEK293 [13]): 10.9 µM (inactive)
EC50 [14]: 65.2 µM (active)

O=C(Nc1ccc(S(=O)(=O)NC2=NCCCCC2)cc1)c1ccc(Cl)cc1Cl
IC50 [15]: 4.47 µM (active)
IC50 [16]: 864 nM (active)
IC50 [17]: 7.42 µM (active)

Brc1ccc2ncnc(NCc3cccnc3)c2c1
IC50 (Interleukin-8 [18]): 1.77 µM (active)
IC50 (Interleukin-8 [19]): 4.61 µM (active)

CCOC(=O)C(C)/C(C)=N\Nc1ccc([N+](=O)[O-])cc1[N+](=O)[O-] (configuration not stated)
IC50 [20]: 155 µM (inactive)
IC50 [21]: > 50 µM (not active)
